ChEMBL document CHEMBL5316347, “Design, Synthesis, and Biological Evaluation of Bipyridazine Derivatives as Stimulator of Interferon Genes (STING) Receptor Agonists” (J Med Chem, 2023)
pEC50, pIC50: −log10 of the molar value. The source made the active and inactive calls. The calls are words filed in the database; no cut-off is given here.

Assays:
[1] = biological target: T1, Stimulator of interferon genes protein (Mus musculus, UniProt Q3TBT3); assay: Agonist activity at mouse 6His-tagged recombinant STING CTD (144 to 378 residues) expressed in Escherichia coli BL21 (DE3) incubated for 10 mins by FRET assay
T1 sequence (Q3TBT3 whole entry): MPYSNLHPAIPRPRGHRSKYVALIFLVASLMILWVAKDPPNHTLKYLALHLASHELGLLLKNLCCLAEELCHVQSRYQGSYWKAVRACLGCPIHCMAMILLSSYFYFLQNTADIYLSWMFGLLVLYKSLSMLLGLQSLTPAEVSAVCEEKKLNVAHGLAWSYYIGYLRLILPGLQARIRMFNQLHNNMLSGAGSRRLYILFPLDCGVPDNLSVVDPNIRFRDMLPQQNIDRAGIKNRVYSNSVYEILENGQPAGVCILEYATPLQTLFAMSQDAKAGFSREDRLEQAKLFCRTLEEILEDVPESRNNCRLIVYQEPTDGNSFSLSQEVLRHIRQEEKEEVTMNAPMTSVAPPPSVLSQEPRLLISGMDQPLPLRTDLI

[2] = biological target: T1, Stimulator of interferon genes protein; assay: Agonist activity at mouse STING in mouse RAW-Lucia ISG cells incubated for 24 hrs in presence of PMA by luciferase reporter assay; type: cell-based
[3] = biological target: T1, Stimulator of interferon genes protein; assay: Agonist activity at mouse STING in STING knockout mouse RAW-Lucia ISG cells incubated for 24 hrs in presence of PMA by luciferase reporter assay; type: cell-based
THP-1 = assay: Cytotoxicity against human THP-1 cells assessed as inhibition of cell growth upto 40 uM measured after 24 hrs in presence of PMA by CellTiter-Glo viability assay; type: toxicity, cell-based; conditions: thp-1, 24 h
[4] = biological target: T2, Stimulator of interferon genes protein (Homo sapiens, UniProt Q86WV6); assay: Agonist activity at human STING in human THP1-Blue ISG cells incubated for 24 hrs in presence of PMA by luciferase reporter assay; type: cell-based
[5] = test system: Stimulator of interferon genes protein (Homo sapiens), Q86WV6 [UNDEFINED MUTATION]; conditions: dose 50.0 µM
[6] = biological target: T3, Stimulator of interferon genes protein (Mus musculus) (UniProt Q3TBT3); assay: Binding affinity to mouse 6His-tagged recombinant STING CTD (144 to 378 residues) expressed in Escherichia coli BL21 (DE3) assessed as thermal stability at 50 uM by measuring change in melting temperature by SYPRO orange dye based analysis; conditions: filed as agonist
T3 sequence (whole entry): T1 sequence (Q3TBT3 whole entry)

[7] = Half life in C57BL/6 mouse at 10 mg/kg, iv qd measured upto 24 hrs by LC-MS/MS analysis; type: ADME, organism-based; conditions: in vivo
[8] = AUC(0 to t) in C57BL/6 mouse at 10 mg/kg, iv qd measured upto 24 hrs by LC-MS/MS analysis; type: ADME, organism-based; set-up: dose 10 mg/kg, time < 24 hrs, route iv; conditions: in vivo
[9] = AUC(0 to infinity) in C57BL/6 mouse at 10 mg/kg, iv qd measured upto 24 hrs by LC-MS/MS analysis; type: ADME, organism-based; set-up: time < 24 hrs, dose 10 mg/kg, route iv; conditions: in vivo
[10] = Clearance in C57BL/6 mouse at 10 mg/kg, iv qd measured upto 24 hrs by LC-MS/MS analysis; type: ADME, organism-based; conditions: in vivo
[11] = MRT(0 to infinity) in C57BL/6 mouse at 10 mg/kg, iv qd measured upto 24 hrs by LC-MS/MS analysis; type: ADME, organism-based; conditions: in vivo
[12] = Volume of distribution at steady state in C57BL/6 mouse at 10 mg/kg, iv qd measured upto 24 hrs by LC-MS/MS analysis; type: ADME, organism-based; conditions: in vivo, read-out: Vdss
B16-F10 [13] = assay: Antitumor activity against mouse B16-F10 cells implanted in C57BL/6 mouse assessed tumor growth inhibition at 10 mg/kg, ip qd measured for 14 days; type: functional, organism-based; conditions: time 14.0 day
B16-F10 [14] = assay: Antitumor activity against mouse B16-F10 cells implanted in C57BL/6 mouse assessed tumor growth inhibition at 30 mg/kg, ip qd measured for 14 days; type: functional, organism-based; conditions: time 14.0 day
[15] = biological target: T2, Stimulator of interferon genes protein; assay: Agonist activity at human STING in STING knockout human THP1-Blue ISG cells incubated for 24 hrs in presence of PMA by luciferase reporter assay; type: cell-based
[16] = Toxicity in C57BL/6 mouse implanted with mouse B16-F10 cells assessed as body weight loss at 10 mg/kg, […] measured for 14 days; type: organism-based; conditions: in vivo, 336 h, time 14 day

T2 sequence (Q86WV6 whole entry): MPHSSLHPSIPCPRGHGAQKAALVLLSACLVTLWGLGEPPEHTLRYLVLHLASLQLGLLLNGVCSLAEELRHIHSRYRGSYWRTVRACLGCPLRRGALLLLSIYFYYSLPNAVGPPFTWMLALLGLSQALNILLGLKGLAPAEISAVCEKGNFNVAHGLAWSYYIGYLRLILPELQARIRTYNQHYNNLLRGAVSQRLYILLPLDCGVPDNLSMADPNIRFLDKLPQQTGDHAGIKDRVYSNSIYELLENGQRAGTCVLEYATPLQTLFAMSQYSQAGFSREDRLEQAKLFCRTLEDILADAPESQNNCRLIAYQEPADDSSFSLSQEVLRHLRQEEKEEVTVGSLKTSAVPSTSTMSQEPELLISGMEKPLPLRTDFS
Stimulator of interferon genes protein (Homo sapiens), Q86WV6 [UNDEFINED MUTATION], sequence (Q86WV6 whole entry, looked up, change not shown, the tested form may be a part): as the sequence (Q86WV6 whole entry) above

SMILES: O=C(Nc1cc(Cl)c(F)cc1C(=O)O)c1ccc(-c2ccnnc2)nn1
- pIC50 [1]: 6.03
- pEC50 [2]: 4.45
- pEC50 [3]: < 3.70
- Activity (THP-1): Non-Toxic

SMILES: O=C(Nc1cc(F)c(F)cc1C(=O)O)c1ccc(-c2ccnnc2)nn1
- pEC50 [4]: 4.75
- ΔTm ([5]; filed as agonist): 6 °C

SMILES: O=C(Nc1cc(F)c(F)cc1C(=O)O)c1ccc(-n2ccnc2)nn1
- pIC50 [1]: 5.80
- ΔTm [6]: 9 °C
- pEC50 [3]: < 3.70
- half-life [7]: 1.82 h
- AUC(0-t) at 24 h [8]: 1360 ng·h/mL
- AUC(0-inf) [9]: 1370 ng·h/mL
- clearance [10]: 123 mL/min/kg
- MRT inf [11]: 0.495 h
- Vd [12]: 3.62 L/kg
- inhibition (B16-F10 [13]): inactive
- inhibition (B16-F10 [14]): Active

SMILES: O=C(Nc1cc(F)c(F)cc1C(=O)O)c1ccc(-n2cccc2)nn1
- pEC50 [4]: 4.47
- ΔTm ([5]; filed as agonist): 0.5 °C

SMILES: O=C(Nc1ccc(Br)cc1C(=O)O)c1ccc(-c2ccnnc2)nn1
- pEC50 [4]: 5.35
- ΔTm ([5]; filed as agonist): 3.5 °C

SMILES: O=C(Nc1ccc(C(F)(F)F)cc1C(=O)O)c1ccc(-c2ccnnc2)nn1
- pEC50 [4]: 2.71
- ΔTm ([5]; filed as agonist): 3.5 °C

SMILES: CC(=O)c1ccn(-c2ccc(C(=O)Nc3cc(F)c(F)cc3C(=O)O)nn2)c1
- pEC50 [4]: 4.52
- ΔTm [5]: 0 °C

SMILES: O=C(Nc1cc(F)c(F)cc1C(=O)O)c1ccc(N2CCCC2)nn1
- pEC50 [4]: < 4.00
- ΔTm ([5]; filed as agonist): -1 °C

SMILES: Cc1cncn1-c1ccc(C(=O)Nc2cc(F)c(F)cc2C(=O)O)nn1
- pEC50 [4]: 4.64
- ΔTm [5]: 0 °C

SMILES: O=C(Nc1cc(F)c(F)cc1C(=O)O)c1ccc(-c2ccoc2)nn1
- pEC50 [4]: 4.42
- ΔTm [5]: 0 °C

SMILES: O=C(Nc1cc(F)c(F)cc1C(=O)O)c1ccc(-n2cncn2)nn1
- pEC50 [4]: 4.94
- ΔTm ([5]; filed as agonist): 1.5 °C

SMILES: CCCn1c(NC(=O)c2cc(C)nn2CC)nc2cc(C(N)=O)cc(OC3COC3)c21
- pIC50 [1]: 5.36
- pEC50 [2]: 5.28
- pEC50 [3]: < 3.70
- Activity (THP-1): Toxic
- half-life [7]: 1.13 h
- AUC(0-t) at 24 h [8]: 3820 ng·h/mL
- AUC(0-inf) [9]: 3830 ng·h/mL
- clearance [10]: 43.8 mL/min/kg
- MRT inf [11]: 0.894 h
- Vd [12]: 2.38 L/kg

SMILES: O=C(Nc1cc(F)c(F)cc1C(=O)O)c1ccc(N2CCOCC2)nn1
- pEC50 [4]: < 4.00
- ΔTm [5]: 0 °C

SMILES: O=C(Nc1cc(F)c(F)cc1C(=O)O)c1ccc(-c2cncnc2)nn1
- pEC50 [4]: 4.49
- ΔTm [5]: 0 °C

SMILES: O=C(Nc1ccccc1C(=O)O)c1ccc(-c2ccnnc2)nn1
- pEC50 [4]: < 4.00
- ΔTm ([5]; filed as agonist): 0.5 °C

SMILES: COc1cc2cc(C(=O)CCC(=O)O)sc2cc1OC
- pEC50 [4]: 5.45
- pEC50 [2]: 4.46
- pEC50 [15]: < 4.00
- pEC50 [3]: < 3.70

SMILES: C#Cc1cc(NC(=O)c2ccc(-c3ccnnc3)nn2)c(C(=O)O)cc1F
- pIC50 [1]: 6.02
- pEC50 [2]: 4.89
- pEC50 [3]: < 3.70
- Activity (THP-1): Non-Toxic
- half-life [7]: 2.1 h
- AUC(0-t) at 24 h [8]: 4390 ng·h/mL
- AUC(0-inf) [9]: 4410 ng·h/mL
- clearance [10]: 37.8 mL/min/kg
- MRT inf [11]: 1.06 h
- Vd [12]: 2.39 L/kg
- Activity [16]: Non-Toxic

SMILES: O=C(Nc1cc(F)c(F)cc1C(=O)O)c1ccc(Nc2cn[nH]c2)nn1
- pEC50 [4]: 4.65
- ΔTm ([5]; filed as agonist): 1 °C

SMILES: Cn1cc(-c2ccc(C(=O)Nc3cc(F)c(F)cc3C(=O)O)nn2)cn1
- pEC50 [4]: 4.69
- ΔTm ([5]; filed as agonist): 0 °C

SMILES: N#Cc1ccn(-c2ccc(C(=O)Nc3cc(F)c(F)cc3C(=O)O)nn2)c1
- pEC50 [4]: 4.98
- ΔTm ([5]; filed as agonist): 3.5 °C

SMILES: COc1ccc(C(=O)O)c(NC(=O)c2ccc(-c3ccnnc3)nn2)c1
- pEC50 [4]: 5.22
- ΔTm ([5]; filed as agonist): 1.5 °C

SMILES: O=C(Nc1cc(Br)ccc1C(=O)O)c1ccc(-c2ccnnc2)nn1
- pEC50 [2]: < 3.70
- pEC50 [3]: < 3.70
- Activity (THP-1): Non-Toxic

SMILES: O=C(Nc1cc(C(F)(F)F)ccc1C(=O)O)c1ccc(-c2ccnnc2)nn1
- pEC50 [4]: < 4.00
- ΔTm [5]: 0 °C

SMILES: O=C(Nc1cc(F)c(F)cc1C(=O)O)c1ccc(-c2cccnc2)nn1
- pEC50 [4]: 4.49
- ΔTm [5]: 0 °C

SMILES: O=C(Nc1cc(Br)c(F)cc1C(=O)O)c1ccc(-c2ccnnc2)nn1
- pIC50 [1]: 5.72
- pEC50 [2]: 4.38
- pEC50 [3]: < 3.70
- Activity (THP-1): Non-Toxic

SMILES: COc1cc(NC(=O)c2ccc(-c3ccnnc3)nn2)c(C(=O)O)cc1OC
- pEC50 [4]: 4.67
- ΔTm ([5]; filed as agonist): 0.5 °C

SMILES: O=C(Nc1cc(F)c(F)cc1C(=O)O)c1ccc(-c2cnsc2)nn1
- pEC50 [4]: 4.75
- ΔTm ([5]; filed as agonist): 3.5 °C

SMILES: COc1ccc(NC(=O)c2ccc(-c3ccnnc3)nn2)c(C(=O)O)c1
- pEC50 [4]: < 4.00
- ΔTm [5]: 0 °C
